According to paper PMC9030138, “The Facile Preparation of PBA-GO-CuO-Modified Electrochemical Biosensor Used for the Measurement of α-Amylase Inhibitors’ Activity” (Molecules, 2022):

Target: T1, α-amylase (Sus scrofa, UniProt P00690)
T1 construct: gene AMY2; from porcine pancreas, type VI-B
T1 sequence (P00690 16-511): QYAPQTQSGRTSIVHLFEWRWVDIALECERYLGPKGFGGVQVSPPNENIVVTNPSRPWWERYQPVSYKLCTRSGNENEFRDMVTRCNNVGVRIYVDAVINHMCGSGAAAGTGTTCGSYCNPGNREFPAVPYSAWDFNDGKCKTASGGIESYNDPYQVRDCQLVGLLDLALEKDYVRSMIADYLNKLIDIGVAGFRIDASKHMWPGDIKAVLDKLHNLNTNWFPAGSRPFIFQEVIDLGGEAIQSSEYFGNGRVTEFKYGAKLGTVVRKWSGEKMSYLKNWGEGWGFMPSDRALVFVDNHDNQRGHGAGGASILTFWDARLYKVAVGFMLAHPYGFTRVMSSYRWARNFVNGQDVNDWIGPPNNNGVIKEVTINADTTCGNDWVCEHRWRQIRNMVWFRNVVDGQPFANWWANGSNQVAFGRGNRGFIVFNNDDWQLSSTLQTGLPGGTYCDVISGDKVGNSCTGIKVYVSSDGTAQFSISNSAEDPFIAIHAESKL
Test: electrochemical glucose sensor (PBA-GO-CuO electrode) assay of starch hydrolysis; checked by iodine colorimetric assay
Assay type: biochemical

**Q.** Which IC50 does the source give for `O=C(O)c1cc(O)c2c(c1)C(=O)c1cccc(O[C@@H]3O[C@H](CO)[C@@H](O)[C@H](O)[C@H]3O)c1C2=O` [Rhein-8-b-D-glucopyranoside] here?
**A.** 39.1 µM
